In article PMC12469314, “Computational and Experimental Insights into Tyrosinase and Antioxidant Activities of Resveratrol and Its Derivatives: Molecular Docking, Molecular Dynamics Simulation, DFT Calculation, and In Vitro Evaluation” (International Journal of Molecular Sciences, 2025):

Key:
mushroom tyrosinase = biological target: T1, mushroom tyrosinase (Agaricus bisporus, UniProt C7FF04); experiment: Anti-mushroom tyrosinase activity (DOPA-chrome method); format: biochemical
T1 construct: purchased Sigma-Aldrich
Procedure: The inhibitory activity of the samples against mushroom tyrosinase was assessed using the DOPA-chrome method with some modifications. […] The assay was performed in a 96-well plate, in which the buffer was added to all wells, followed by 10% DMSO (50 μL) in the control and blank control wells. […] Next, 50 μL of tyrosinase solution was added to all wells except for the blank control and blank sample, followed by incubation at room temperature for 10 min. Subsequently, 50 μL of L-Dopa solution was added to all wells and incubated for 10 min at room temperature. Finally, the absorbance was measured at 492 nm using a UV spectrophotometer. […] All experiments were performed in triplicate.

[1] = DPPH radical scavenging activity; conditions: 30 min, 517 nm, mean ± SD
Procedure: The DPPH radical scavenging activity was determined according to the method in [45] with slight modifications. A 20 µL sample was added to a 96-well plate, followed by 0.1 mM DPPH dissolved in absolute ethanol. The mixtures were incubated in the dark at room temperature for 30 min, and their absorbance was measured at 517 nm with 3 replications using a UV spectrophotometer. The radical scavenging activity was calculated as follows:%radical scavenging = [(Acontrol − Asample)/Acontrol] × 100 where Acontrol = absorbance of the control, which contains an equal volume of DPPH and absolute ethanol, and Asample = absorbance of the sample or ascorbic acid standard, which contains an equal volume of DPPH and the sample solution. The percentage inhibition of the test solutions was calculated and plotted against their concentrations, along with the L-ascorbic acid standard, to generate a linear equation. The concentration required for IC50 was determined via interpolation from the linear equation.

[2] = Ferric reducing antioxidant power (FRAP); conditions: 595 nm, FeSO4 calibration, mean ± SD
Procedure: A FRAP assay was performed based on the method in [46] with slight modifications. The FRAP solution reagent was prepared by combining 0.3 M acetate buffer, 10 mM TPTZ solution in 40 mM HCl, and 20 mM ferric chloride (FeCl3) solution in a 10:1:1 ratio. Next, 20 µL of the sample was added to 280 µL of the FRAP reagent, and the mixture was thoroughly mixed. Absorbance was then measured at 595 nm using a UV spectrophotometer. A calibration curve was constructed with ferrous sulfate (FeSO4), and the results were expressed as the equivalent of FeSO4/g.

[3] = ABTS radical scavenging activity; conditions: 7 min at 37 °C, 734 nm, mean ± SD
Procedure: ABTS radical scavenging activity was measured using the method described by Thaipong et al. (2006), with minor modifications. The ABTS solution was prepared by dissolving 7 mM ABTS and mixing it with potassium persulfate in a 2:1 ratio. The mixture was allowed to react in the dark for 12–16 h. Before use, the ABTS radical cation was diluted with ultrapure water to achieve an initial absorbance of around 0.70 ± 0.02 at 734 nm, as measured using a UV spectrophotometer. Sample solutions at various concentrations were then prepared by mixing 50 μL of each sample with 100 μL of the ABTS solution. The mixture was incubated in the dark for 7 min at 37 °C. After incubation, absorbance was measured at 734 nm. All tests were performed in triplicate, and the percentage of radical scavenging activity was calculated.

T1 sequence (C7FF04 1-392): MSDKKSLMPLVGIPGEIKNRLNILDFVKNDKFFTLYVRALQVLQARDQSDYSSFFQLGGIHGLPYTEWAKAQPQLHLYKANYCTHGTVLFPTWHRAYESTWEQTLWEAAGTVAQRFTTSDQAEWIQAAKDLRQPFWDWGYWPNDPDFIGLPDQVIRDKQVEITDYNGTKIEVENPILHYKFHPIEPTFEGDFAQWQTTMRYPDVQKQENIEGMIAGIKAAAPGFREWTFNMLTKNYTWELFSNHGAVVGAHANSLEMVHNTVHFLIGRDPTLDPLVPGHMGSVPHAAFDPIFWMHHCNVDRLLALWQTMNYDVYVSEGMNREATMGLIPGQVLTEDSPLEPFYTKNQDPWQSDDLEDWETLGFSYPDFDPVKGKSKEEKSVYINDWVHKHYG

Compound	IC50 (mushroom tyrosinase)	IC50 [1]	FRAP reducing power [2]	IC50 [3]
Oc1ccc(CCc2cc(O)cc(O)c2)cc1 [Dre, Dihydroresveratrol]	335 ± 7.98 µM	> 1500 µM	very low reducing power	–
Oc1cc(O)cc(/C=C/c2ccc(O)cc2O)c1 [Ore, Oxyresveratrol]	4.02 ± 0.46 µM	38.1 ± 1.12 µM	664.99 ± 42.62 μmol Fe(II)/g	26.2 ± 0.57 µM
CC(=O)Oc1ccc(/C=C/c2cc(OC(C)=O)cc(OC(C)=O)c2)cc1 [Are, Acetyl-resveratrol]	396 ± 5.74 µM	> 1500 µM	very low reducing power	–
O=C1O[C@H]([C@@H](O)CO)C(O)=C1O [L-ascorbic acid, reference compound]	–	–	–	52.41 ± 0.06 µM
COc1ccc(/C=C\c2cc(OC)cc(OC)c2)cc1 [Cre, Cis-trismethoxy resveratrol]	532 ± 3.59 µM	> 1500 µM	very low reducing power	–
Oc1ccc(/C=C/c2cc(O)cc(O)c2)cc1 [Re, 3,4′,5-trihydroxy-trans-stilbene]	517 ± 7.4 µM	–	–	–
